The test system of experiment [1] is HL-60. The experiment can be described thus: Inhibition of [3H]Arachidonic acid production by stimulated HL60 (human leukemia) cells. Type of experiment: functional, cell-based.
The nature of experiment [2]: In vitro inhibition of human recombinant cytosolic phospholipase A2 (c-PLA2).

Each structure is given as a SMILES string.

Regarding `O=C(COc1ccc(C(=O)O)cc1)COc1ccc([S+]([O-])CCCCCc2ccccc2)cc1` (configuration not stated), the 50% inhibitory concentration (IC50) came out at 18000 nM in experiment [1] and 1800 nM in experiment [2]. As to `O=C(COc1ccc(C(=O)O)cc1)COc1ccc2c(c1)C(=O)N(Cc1ccc(Cl)c(Cl)c1)C2=O`, the IC50 is 1000 nM in experiment [1] and 560 nM in experiment [2]. Consider `O=C(COc1ccc(OCCCCCC2CCCO2)cc1)COc1ccc(C(=O)O)cc1` (configuration not stated), for which the IC50 in experiment [2] came out at 5200 nM.

As for `O=C(COc1ccc(SCCCCCc2ccco2)cc1)COc1ccc(C(=O)O)cc1`, the half-maximal inhibitory concentration (IC50) is 1000 nM in experiment [1] and 80 nM in experiment [2]. For `O=C(COc1ccc(C(=O)O)cc1)COc1ccc(-c2noc(-c3ccc(Cl)c(Cl)c3)n2)cc1` the same measures were 4700 nM and 40 nM. Turning to `O=C(COc1ccc(C(=O)O)cc1)COc1ccc(C(=O)NCCCCc2ccccc2)cc1`, the IC50 in experiment [2] is 20000 nM.

With `O=C(COc1ccc(C(=O)O)cc1)COc1ccc(S(=O)(=O)CCCCCc2ccccc2)cc1`, the IC50 in experiment [1] came out at 5200 nM; in experiment [2], 1000 nM. For `O=C(COc1ccc(SCCCCSc2nccs2)cc1)COc1ccc(C(=O)O)cc1` the same measures were 1100 nM and 760 nM. In the case of `Cn1ccnc1SCCCCOc1ccc(OCC(=O)COc2ccc(C(=O)O)cc2)cc1`, the IC50 in experiment [2] was found to be 63000 nM.

For `O=C(COc1ccc(OCc2ccc(Cl)c(Cl)c2)cc1)COc1ccc(C(=O)O)cc1`, the IC50 in experiment [1] was determined as 2000 nM; in experiment [2] it was 250 nM.

With `O=C(COc1ccc(C(=O)O)cc1)COc1ccc(-c2noc(CCCCc3ccccc3)n2)cc1`, the IC50 is 760 nM in experiment [1] and 270 nM in experiment [2]. On to `CN(CCc1ccccc1)C(=O)CSc1ccc(OCC(=O)COc2ccc(C(=O)O)cc2)cc1`, for which the IC50 in experiment [2] stood at 34000 nM. Take `O=C(COc1ccc(OCCCCSc2nc3ccccc3o2)cc1)COc1ccc(C(=O)O)cc1`: the IC50 in experiment [1] amounted to 1100 nM; in experiment [2] it was 140 nM. `O=C(COc1ccc(C(=O)O)cc1)COc1ccc(C(=O)OCCCCCc2ccccc2)cc1`: the figures for the IC50 in experiment [1] and in experiment [2] were 1300 nM and 50 nM, respectively. For `O=C(COc1ccc(SCCCCCc2ccccc2)cc1)COc1ccc(C(=O)O)cc1` the same measures were 5800 nM and 80 nM. As to `CCCCCCCCCCOc1ccc(OCC(=O)COc2ccc(C(=O)O)cc2)cc1`, in experiment [2], the IC50 stood at 30 nM. Take `O=C(COc1ccc(OCCCCCc2ccccc2)cc1)COc1ccc(C(=O)O)cc1`: the figures for the IC50 in experiment [1] and in experiment [2] were 2600 nM and 460 nM, respectively. Consider `O=C(COc1ccc(SCCCCC(=O)N2CCCCC2)cc1)COc1ccc(C(=O)O)cc1`, for which, in experiment [2], the 50% inhibitory concentration (IC50) stood at 12000 nM. Turning to `O=C(COc1ccc(C(=O)O)cc1)COc1ccc2c(c1)C(=O)N(CCCCc1ccccc1)C2=O`, the figures for the IC50 in experiment [1] and in experiment [2] were 760 nM and 180 nM, respectively. `CCOCCCCCCCOc1ccc(OCC(=O)COc2ccc(C(=O)O)cc2)cc1`: the IC50 in experiment [2] was 1700 nM.

For `O=C(COc1ccc(OCCCCCc2ccco2)cc1)COc1ccc(C(=O)O)cc1`, the values for the half-inhibitory concentration (IC50) in experiment [1] and in experiment [2] were 4800 nM and 590 nM, respectively. For `O=C(COc1ccc(C(=O)O)cc1)COc1ccc(-c2noc(Cc3ccc(Cl)c(Cl)c3)n2)cc1`, in that order: 2700 nM and 90 nM.

A word on the IC50: it is the concentration that inhibits the measured activity by half.

Values taken from ChEMBL document CHEMBL1147487, “Synthesis and evaluation of substrate-mimicking cytosolic phospholipase A2 inhibitors--reducing the lipophilicity of the arachidonyl chain isostere” (Bioorg Med Chem Lett, 2004).
